Laboratory results reported in article PMC3265362 (Biochemical Journal, 2008).
Values joined by “and” are separate entries in the source; they are usually repeats but may differ in a detail not shown here. Equal entries are not always repeated.

B1: human QR2 (quinone reductase 2), P16083 1-231 (enzyme)
chain: MAGKKVLIVYAHQEPKSFNGSLKNVAVDELSRQGCTVTVSDLYAMNLEPRATDKDITGTLSNPEVFNYGVETHEAYKQRSLASDITDEQKKVREADLVIFQFPLYWFSVPAILKGWMDRVLCQGFAFDIPGFYDSGLLQGKLALLSVTTGGTAEMYTKTGVNGDSRYFLWPLQHGTLHFCGFKVLAPQISFAPEIASEEERKGMVAAWSQRLQTIWKEEPIPCTAHWHFGQ

Key:
[1] = target: T1, human QR2 (Homo sapiens, UniProt P16083); test: ITC; assay type: binding; conditions: for ΔG / −TΔS / ΔH: single-site binding model; for ΔH: 50 mM Hepes pH 7.5, 100 mM NaCl, 1 mM TCEP
T1 sequence (P16083 1-231): B1 chain

[2] = target: T1, human QR2; test: Steady-state kinetics, mechanism of inhibition of QR2; assay type: biochemical; conditions: fixed NMeH 100 μM, various menadione
[3] = target: T1, human QR2; conditions: read-out: IC50 value, Mammalian cells; cytosolic fraction of mammalian cell lines overexpressing human QR2, dihydrobenzylnicotinamide as co-substrate; ref [37]; cited from earlier work
[4] = target: T2, human QR2 (quinone reductase 2) (human), P16083; test: crystal structure; conditions: remark: other sources report otherwise
T2 chain: B1 chain

Molecule | h (Hill coefficient, a measure of the stoichiometry of binding) [1] | ΔG [1] [kcal/mol] | −TΔS [1] [kcal/mol] | ΔH [1] [kcal/mol] | ΔH ([1]; listed as 2-iodomelatonin) [kcal/mol] | ΔH ([1]; listed as melatonin) [kcal/mol] | Ki (uncompetitive against menadione) [2] | IC50 [3] [µM] | stoichiometry N [4]
Oc1ccc(/C=C/c2cc(O)cc(O)c2)cc1 [Resveratrol] | 0.9 | -9.8 ± 0.50 | 5.01 ± 0.61 | -14.6 ± 0.15 |  |  |  |  | 
COc1ccc2[nH]c(I)c(CCNC(C)=O)c2c1 [2-Iodomelatonin] | 0.8 | -8.5 ± 0.38 | -0.65 ± 0.24 | -7.85 ± 0.62 | -7.85 |  |  |  | 
COc1ccc2[nH]cc(CCNC(C)=O)c2c1 [Melatonin] | 0.8 | -8.07 ± 0.3 | 2.38 ± 0.11 | -10.45 ± 0.4 |  | -10.45 | 92 µM and 91.6 ± 4.6 µM |  | 
CC(=O)NCCc1c[nH]c2ccc(O)cc12 [N-Acetyl-5-hydroxytryptamine] |  |  |  |  |  |  |  | 99 ± 14 | 
B1 |  |  |  |  |  |  |  |  | 2
